Measured values reported in patent US20230027066A1 (Urovant Sciences GmbH, priority 2019, published 2023).

Columns and labels:
[1] = tested on: men and women with overactive bladder; experiment: 40-week extension study (52 weeks), efficacy; format: in vivo, human
From the text: All CFB calculations used the parent study Baseline value.

[2] = 40-week extension study (52 weeks), adverse events
From the text: Approximately 500 men and women with overactive bladder who completed 12 weeks in the parent study were permitted to enroll, at approximately 110 study sites in the U.S.
Secondary endpoints were evaluation of CFB at Week 52 in average number of micturitions, Urge Urinary Incontinence (UUI) episodes, urgency episodes, and total urinary incontinence episodes. All CFB calculations used the parent study Baseline value.

[3] = 52-Week treatment group, Full Analysis Set Extension
[4] = 52-Week treatment group, multiple imputation

SMILES: Cc1ccc(O)c([C@H](CCN(C(C)C)C(C)C)c2ccccc2)c1 [Tolterodine ER, tolterodine, reference compound]
- Total urinary incontinence episodes, Change from Baseline Mean at Week 52 [1, 3]: −2.0
- Total urinary incontinence episodes, Week 52 Mean [1, 3]: 1.7
- UUI Episodes 75% Responders at Week 52 [1, 4]: 54.4%
- UUI Episodes 100% Responders at Week 52 [1, 4]: 34.2%
- Urgency Episodes 50% Responders at Week 52 [1, 4]: 51.0%
- UUI Episodes, Change from Baseline LS Mean (SE) at Week 52 ([1]; 52-Weeks arm, Full Analysis Set Extension for Incontinence): −1.7 (0.17)
- Micturitions, Change from Baseline LS Mean (SE) at Week 52 ([1]; 52-Weeks arm, mixed model for repeated measures): −2.0 (0.26)
- Urgency episodes, Change from Baseline LS Mean (SE) at Week 52 ([1]; 52-Weeks treatment, Full Analysis Set Extension): −3.2 (0.37)
- Total urinary incontinence episodes, Change from Baseline LS Mean (SE) at Week 52 ([1]; 52-Weeks treatment, Full Analysis Set Extension for Incontinence): −1.9 (0.19)
- % Responders, 50% Reduction in Total Inc at Week 52 ([1]; 52-week treatment, Table 97): 62%
- % Responders, 50% Reduction in UE at Week 52 ([1]; 52-week treatment, Table 97): 51%
- % Responders, 75% Reduction in UUI at Week 52 ([1]; 52-week treatment, Table 97): 54%
- % Responders, 100% Reduction in UUI at Week 52 ([1]; 52-week treatment, Table 97): 34%
- Micturitions, Least Squares Means CFB at Week 52 ([1]; 52-week treatment, Table 97): −2.0
- Total Incontinence Episodes, Least Squares Means CFB at Week 52 ([1]; 52-week treatment, Table 97): −1.9
- UUI Episodes, Least Squares Means CFB at Week 52 ([1]; 52-week treatment, Table 97): −1.7
- Urgency Episodes (UE), Least Squares Means CFB at Week 52 ([1]; 52-week treatment, Table 97): −3.2
- Volume Voided, mean change from baseline at Week 52 ([1]; 52-week treatment, Table 97): 9 mL
- Discontinued the study: Death ([2]; 40-Weeks arm): 0 n (%)
- Discontinued the study: Death ([2]; 52-Weeks arm): 0 n (%)
- SAEs resulting in death (not considered related by Investigator or Sponsor) ([2]; Overall groups): 0 n (%)
- Discontinued the study: Death ([2]; Overall groups, Randomized Set Extension): 0 n (%)
- Discontinued the study: Adverse Event ([2]; both, human, in vivo): 8 (3.4) n (%)
- Patients with at least one treatment-emergent adverse event ([2]; both, human, in vivo): 126 (54.3) n (%)
- Patients with at least one treatment-emergent serious AE ([2]; both, human, in vivo): 10 (4.3) n (%)
- SAEs considered treatment-related by the investigator ([2]; both, human, in vivo): 2 (0.9) n (%)
- SAEs: Hospitalization ([2]; both, human, in vivo): 9 (3.9) n (%)
- SAEs: Other serious criteria ([2]; both, human, in vivo): 2 (0.9) n (%)
- Discontinued the study: Adverse Event ([2]; both, human, in vivo, 40 weeks): 4 (4.4) n (%)
- AE leading to discontinuation of study drug: Acute prerenal failure ([2]; both, human, in vivo, 52 weeks): 1 (0.4) n (%)
- AE leading to discontinuation of study drug: Amnesia ([2]; both, human, in vivo, 52 weeks): 0 n (%)
- AE leading to discontinuation of study drug: Any ([2]; both, human, in vivo, 52 weeks): 8 (3.4) n (%)
- AE leading to discontinuation of study drug: Aortic stenosis ([2]; both, human, in vivo, 52 weeks): 1 (0.4) n (%)
- AE leading to discontinuation of study drug: Atrial fibrillation ([2]; both, human, in vivo, 52 weeks): 1 (0.4) n (%)
- AE leading to discontinuation of study drug: Blood creatinine increased ([2]; both, human, in vivo, 52 weeks): 0 n (%)
- AE leading to discontinuation of study drug: Blood urea increased ([2]; both, human, in vivo, 52 weeks): 0 n (%)
- AE leading to discontinuation of study drug: Cardiac failure ([2]; both, human, in vivo, 52 weeks): 1 (0.4) n (%)
- AE leading to discontinuation of study drug: Cardiomyopathy ([2]; both, human, in vivo, 52 weeks): 1 (0.4) n (%)
- AE leading to discontinuation of study drug: Chronic kidney disease ([2]; both, human, in vivo, 52 weeks): 1 (0.4) n (%)
- AE leading to discontinuation of study drug: Constipation ([2]; both, human, in vivo, 52 weeks): 0 n (%)
- AE leading to discontinuation of study drug: Diarrhea ([2]; both, human, in vivo, 52 weeks): 0 n (%)
- AE leading to discontinuation of study drug: Dizziness ([2]; both, human, in vivo, 52 weeks): 1 (0.4) n (%)
- AE leading to discontinuation of study drug: Dry eye ([2]; both, human, in vivo, 52 weeks): 1 (0.4) n (%)
- AE leading to discontinuation of study drug: Dyspnoea ([2]; both, human, in vivo, 52 weeks): 1 (0.4) n (%)
- AE leading to discontinuation of study drug: Haematuria ([2]; both, human, in vivo, 52 weeks): 1 (0.4) n (%)
- AE leading to discontinuation of study drug: Headache ([2]; both, human, in vivo, 52 weeks): 1 (0.4) n (%)
- AE leading to discontinuation of study drug: Intervertebral disc degeneration ([2]; both, human, in vivo, 52 weeks): 1 (0.4) n (%)
- AE leading to discontinuation of study drug: Mitral valve incompetence ([2]; both, human, in vivo, 52 weeks): 1 (0.4) n (%)
- AE leading to discontinuation of study drug: Osteoarthritis ([2]; both, human, in vivo, 52 weeks): 1 (0.4) n (%)
- AE leading to discontinuation of study drug: Pulmonary embolism ([2]; both, human, in vivo, 52 weeks): 1 (0.4) n (%)
- AE leading to discontinuation of study drug: Sinus tachycardia ([2]; both, human, in vivo, 52 weeks): 1 (0.4) n (%)
- AE leading to discontinuation of study drug: Tricuspid valve incompetence ([2]; both, human, in vivo, 52 weeks): 1 (0.4) n (%)
- AE: Anaemia ([2]; both, human, in vivo, 52 weeks): 2 (0.9) n (%)
- AE: Atrial fibrillation ([2]; both, human, in vivo, 52 weeks): 1 (0.4) n (%)
- AE: Back pain ([2]; both, human, in vivo, 52 weeks): 3 (1.3) n (%)
- AE: Blood pressure increased ([2]; both, human, in vivo, 52 weeks): 4 (1.7) n (%)
- AE: Bronchitis ([2]; both, human, in vivo, 52 weeks): 3 (1.3) n (%)
- AE: Constipation ([2]; both, human, in vivo, 52 weeks): 6 (2.6) n (%)
- AE: Diarrhea ([2]; both, human, in vivo, 52 weeks): 4 (1.7) n (%)
- AE: Dizziness ([2]; both, human, in vivo, 52 weeks): 2 (0.9) n (%)
- AE: Dry mouth ([2]; both, human, in vivo, 52 weeks): 12 (5.2) n (%)
- AE: Fatigue ([2]; both, human, in vivo, 52 weeks): 0 n (%)
- AE: Headache ([2]; both, human, in vivo, 52 weeks): 9 (3.9) n (%)
- AE: Hyperglycemia ([2]; both, human, in vivo, 52 weeks): 2 (0.9) n (%)
- AE: Hypertension ([2]; both, human, in vivo, 52 weeks): 20 (8.6) n (%)
- AE: Hypotension ([2]; both, human, in vivo, 52 weeks): 0 n (%)
- AE: Musculoskeletal pain ([2]; both, human, in vivo, 52 weeks): 1 (0.4) n (%)
- AE: Nasopharyngitis ([2]; both, human, in vivo, 52 weeks): 12 (5.2) n (%)
- AE: Nausea ([2]; both, human, in vivo, 52 weeks): 7 (3.0) n (%)
- AE: Residual urine volume increased ([2]; both, human, in vivo, 52 weeks): 3 (1.3) n (%)
- AE: Syncope ([2]; both, human, in vivo, 52 weeks): 1 (0.4) n (%)
- AE: Tachycardia (Sinus Tachycardia) ([2]; both, human, in vivo, 52 weeks): 1 (0.4) n (%)
- AE: Upper respiratory tract infection ([2]; both, human, in vivo, 52 weeks): 1 (0.4) n (%)
- AE: Urinary retention ([2]; both, human, in vivo, 52 weeks): 1 (0.4) n (%)
- AE: Urinary tract infection ([2]; both, human, in vivo, 52 weeks): 17 (7.3) n (%)
- Discontinued the study: Adverse Event ([2]; both, human, in vivo, 52 weeks): 4 (2.8) n (%)
